Test system: MM.1S cells
Test: CellTiter-Glo cell viability assay
Type: cell-based
Conditions: Homo sapiens, MM1.S, 72 h, read-out: IC50 cell viability
Experimental: The MM.1S was obtained from ATCC (Manassas, VA, USA).
(§1) For this purpose, the dilution series was prepared at 200× concentration in DMSO and then further diluted to 10× concentration in medium. The final DMSO concentration was 0.5%. The toxicity of compounds was assessed after 72 h using the CellTiter‐Glo 2.0 cell viability assay. Luminescence was then measured, and the IC50 was determined by plotting dose–response curves and performing nonlinear regression using GraphPad Prism.
as §1, with “series were” for “series was”, “the CellTiter-Glo” for “the CellTiter‐Glo”, “plotting dose-response” for “plotting dose–response”, “GraphPad Prism.^[1]” for “GraphPad Prism.”

Compound | IC50 [µM]
O=C(CCCCCCC(=O)Nc1ccccc1)NO [Vorinostat] | 0.79 ± 0.13
O=C(CCCCCCNC(=O)c1cnc(N(c2ccccc2)c2ccccc2)nc1)NO [Ricolinostat] | 2.59 ± 0.27

From publication PMC12238837, “DCAF16‐Based Covalent Molecular Glues for Targeted Protein Degradation of Histone Deacetylases” (Archiv Der Pharmazie, 2025)
